Experimental data reported in patent US8377974B2 (Millennium Pharmaceuticals, Inc., priority 2004, dated 2013).

target: T1, human plasma protein factor Xa (Homo sapiens, UniProt P00742); test: Factor Xa IC50 determination: cleavage of paranitroanilide substrate S-2765 in 96-well plates; assay type: biochemical; conditions: fXa 1 nM, S-2765 100 μM, Tris buffered saline pH 7.4, room temperature
T1 construct: measure proteolytic activity of the enzyme (factor Xa); purchased Haematologic Technologies (Essex Junction, Vt.); host or cells: human plasma
Text: This example illustrates methods for evaluating the compounds of the invention, along with results obtained for such assays. The in vitro and in vivo Factor Xa isoform activities of the inventive compounds can be determined by various procedures known in the art, such as a test for their ability to inhibit the activity of the Factor Xa isoform. […] The IC50 value is the concentration (in nM) of the compound required to provide 50% inhibition of Factor Xa isoform.
An in vitro assay for detecting and measuring inhibition activity against Factor Xa is as follows:
The substrate S-2765 (Z-D-Arg-Gly-Arg-pNA.HCl) was obtained from Diapharma (West Chester, Ohio).
The human plasma protein factor Xa was purchased from Haematologic Technologies (Essex Junction, Vt.).
All assays, which are performed in 96-well microtiter plates, measure proteolytic activity of the enzyme (factor Xa) by following cleavage of paranitroanilide substrate. The assay buffer used for proteolytic assays was Tris buffered saline (20 mM Tris, 150 mM NaCl, 5 mM CaCl2, 0.1% Bovine serum albumin (BSA), 5% Dimethly Sulfoxide (DMSO) pH 7.4). In a 96-well microtiter plate, inhibitor was serially diluted to give a range of concentrations from 0.01 nM to 10 μM (final). Duplicate sets of wells were assayed and control wells without inhibitor were included. Enzyme was added to each well, (fXa concentration=1 nM), the plate was shaken for 5 seconds and then incubated for 5 minutes at room temperature. S2765 was added (100 μM final) and the plate was shaken for 5 seconds (final liquid volume in each well was 200 μl). The degree of substrate hydrolysis was measured at 405 nm on a Thermomax plate reader (Molecular Devices, Sunnyvale, Calif.) for 2 minutes. The initial velocities (mOD/min), for each range of inhibitor concentrations, were fitted to a four parameter equation using Softmax data analysis software. The parameter C, derived from the resulting curve-fit, corresponded to the concentration for half maximal inhibition (IC50).

T1 sequence (P00742 235-488 limits assumed): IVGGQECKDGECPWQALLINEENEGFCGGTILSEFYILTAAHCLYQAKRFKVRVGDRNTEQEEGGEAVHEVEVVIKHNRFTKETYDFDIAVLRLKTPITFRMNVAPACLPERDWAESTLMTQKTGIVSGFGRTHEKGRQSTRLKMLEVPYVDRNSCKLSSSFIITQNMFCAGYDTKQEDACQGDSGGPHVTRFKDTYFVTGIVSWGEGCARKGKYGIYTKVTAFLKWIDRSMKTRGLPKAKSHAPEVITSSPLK
T1 sequence (P00742 41-179 partner limits assumed): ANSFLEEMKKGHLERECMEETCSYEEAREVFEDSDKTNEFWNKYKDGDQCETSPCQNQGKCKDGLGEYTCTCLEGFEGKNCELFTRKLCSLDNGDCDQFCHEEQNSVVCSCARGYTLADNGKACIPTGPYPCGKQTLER

IC50 [nM] | SMILES
100 to 500 | CCOC(=O)C1CCN(C(=N)c2ccc(-c3nc(CNC(=O)c4ccc(Cl)s4)co3)cc2)CC1 [Example 342, Ethyl 1-((4-(4-((2-chlorothiophene-5-carboxamido)methyl)oxazol-2-yl)phenyl)(imino)methyl)piperidine-4-carboxylate]
≥ 500 | O=C(NCc1cc(-c2ccc(Nc3ccccc3)cc2)no1)c1ccc(Cl)s1 [Example 250, 5-Chloro-thiophene-2-carboxylic acid [3-(4-phenylamino-phenyl)-isoxazol-5-ylmethyl]-amide]
≥ 500 | O=C(NCc1cc(-c2ccc(N3CCOCC3)cc2)no1)c1ccc(Cl)s1 [Example 257, 5-Chloro-thiophene-2-carboxylic acid [3-(4-morpholin-4-yl-phenyl)-isoxazol-5-ylmethyl]-amide]
≤ 100 | CN(C)CCN(C)C(=N)c1ccc(C2=NOC(CNC(=O)c3ccc(Cl)s3)C2)cc1 (centres unmarked) [Example 16, 5-Chloro-thiophene-2-carboxylic acid (3-{4-[N-(2-dimethylamino-ethyl)-N-methyl-carbamimidoyl]-phenyl}-4,5-dihydro-isoxazol-5-ylmethyl)-amide]
≥ 500 | O=C(NCC1CC(c2ccc(Cl)cc2)=NO1)c1ccc(Cl)s1 (centres unmarked) [Example 153, 5-Chloro-thiophene-2-carboxylic acid [3-(4-chloro-phenyl)-4,5-dihydro-isoxazol-5-ylmethyl]-amide]
≤ 100 | COCCN(C)Cc1ccccc1-c1ccc(C2=NOC(CNC(=O)c3ccc(Cl)s3)C2)cc1 (centres unmarked) [Example 198, 5-Chloro-thiophene-2-carboxylic acid [3-(2′-{[(2-methoxy-ethyl)-methyl-amino]-methyl}-biphenyl-4-yl) 4,5-dihydro-isoxazol-5-ylmethyl]-amide]
≥ 500 | O=C(NCC1CC(c2ccc(Nc3ccnc4c(C(F)(F)F)cccc34)cc2)=NO1)c1ccc(Cl)s1 (centres unmarked) [Example 393, 5-Chloro-N-((3-(4-(8-(trifluoromethyl)quinolin-4-ylamino)phenyl)-4,5-dihydroisoxazol-5-yl)methyl)thiophene-2-carboxamide]
100 to 500 | COCCN(C)C(=N)c1ccc(C2=NOC(CNC(=O)c3ccc(Cl)s3)C2)cc1 (centres unmarked) [Example 14, 5-Chloro-thiophene-2-carboxylic acid (3-{4-[N-(2-methoxy-ethyl)-N-methyl-carbamimidoyl]-phenyl}-4,5-dihydro-isoxazol-5-ylmethyl)-amide]
≤ 100 | N=C(c1ccc(-c2nc(CNC(=O)c3ccc(Cl)s3)cs2)cc1)N1CCCC1 [Example 352, 5-Chloro-N-((2-(4-(imino(pyrrolidin-1-yl)methyl)phenyl)thiazol-4-yl)methyl)thiophene-2-carboxamide]
≤ 100 | CSc1cc(C(=N)N2CCCC2)ccc1C1=NOC(CNC(=O)c2ccc(Cl)s2)C1 (centres unmarked) [Example 138, 5-Chloro-thiophene-2-carboxylic acid {3-[4-(imino-pyrrolidin-1-yl-methyl)-2-methylsulfanyl-phenyl]-4,5-dihydro-isoxazol-5-ylmethyl}-amide]
≤ 100 | CN1CCN=C1c1ccc(C2=NOC(CNC(=O)c3ccc(Cl)s3)C2)c(OC2CCCCC2)c1 (centres unmarked) [Example 116, 5-Chloro-thiophene-2-carboxylic acid {3-[2-cyclohexyloxy-4-(1-methyl-4,5-dihydro-1H-imidazol-2-yl)-phenyl]-4,5-dihydro-isoxazol-5-ylmethyl}-amide]
≤ 100 | Cc1ccc(=O)n(-c2ccc(-n3cc(CNC(=O)c4ccc(Cl)s4)nn3)cc2)c1 [Example 296, 5-Chloro-N-((1-(4-(5-methyl-2-oxopyridin-1(2H)-yl)phenyl)-1H-1,2,3-triazol-4-yl)methyl)thiophene-2-carboxamide]
100 to 500 | COCCN(C)Cc1ccc(Cl)cc1-c1ccc(C2=NOC(CNC(=O)c3ccc(Cl)s3)C2)cc1 (centres unmarked) [Example 206, 5-Chloro-thiophene-2-carboxylic acid [3-(5′-chloro-2′-{[(2-methoxy-ethyl)-methyl-amino]-methyl}-biphenyl-4-yl)-4,5-dihydro-isoxazol-5-ylmethyl]-amide]
≤ 100 | CN1CCN=C1c1ccc(-c2cc(CNC(=O)c3ccc(Cl)s3)no2)cc1 [Example 331, 5-Chloro-N-((5-(4-(1-methyl-4,5-dihydro-1H-imidazol-2-yl)phenyl)isoxazol-3-yl)methyl)thiophene-2-carboxamide]
100 to 500 | CN(Cc1ccco1)C(=N)c1ccc(-c2nc(CNC(=O)c3ccc(Cl)s3)co2)cc1 [Example 349, N-((2-(4-(N-(Furan-2-ylmethyl)-N-methylcarbamimidoyl)phenyl)oxazol-4-yl)methyl)-5-chlorothiophene-2-carboxamide]
≤ 100 | O=C(NCC1CC(c2ccc(Nc3ccnc4cc(C(F)(F)F)ccc34)cc2)=NO1)c1ccc(Cl)s1 (centres unmarked) [Example 394, 5-Chloro-N-((3-(4-(7-(trifluoromethyl)quinolin-4-ylamino)phenyl)-4,5-dihydroisoxazol-5-yl)methyl)thiophene-2-carboxamide]
≤ 100 | N=C(c1ccc(-n2cc(CNC(=O)c3ccc(Cl)s3)nn2)c(F)c1)N1CCCCC1 [Example 323, 5-Chloro-N-((1-(2-fluoro-4-(imino(piperidin-1-yl)methyl)phenyl)-1H-1,2,3-triazol-4-yl)methyl)thiophene-2-carboxamide]
≥ 500 | CN(C)Cc1ccccc1-c1cccc(-c2cc(CNC(=O)c3ccc(Cl)s3)on2)c1 [Example 268, 5-Chloro-thiophene-2-carboxylic acid [3-(T-dimethylaminomethyl-biphenyl-3-yl)-isoxazol-5-ylmethyl]-amide]
100 to 500 | COc1ccccc1-c1ccc(C2=NOC(CNC(=O)c3ccc(Cl)s3)C2)cc1 (centres unmarked) [Example 188, 5-Chloro-thiophene-2-carboxylic acid [3-(2′-methoxy-biphenyl-4-yl)-4,5-dihydro-isoxazol-5-ylmethyl]-amide]
≤ 100 | O=C(NCC1CC(c2ccc(C(=O)N3CC=CC3)cc2)=NO1)c1ccc(Cl)s1 (centres unmarked) [Example 397, 5-Chloro-N-((3-(4-(2,5-dihydro-1H-pyrrole-1-carbonyl)phenyl)-4,5-dihydroisoxazol-5-yl)methyl)thiophene-2-carboxamide]
≤ 100 | CCOc1cc(C(=N)N2CCCC2)ccc1C1=NOC(CNC(=O)c2ccc(Cl)s2)C1 (centres unmarked) [Example 108, 5-Chloro-thiophene-2-carboxylic acid {3-[2-ethoxy-4-(imino-pyrrolidin-1-yl-methyl)-phenyl]-4,5-dihydro-isoxazol-5-ylmethyl}-amide]
≥ 500 | CN(C)Cc1ccc(-c2ccc(-c3cc(CNC(=O)c4ccc(Cl)s4)on3)cc2)cc1 [Example 213, 5-Chloro-thiophene-2-carboxylic acid [3-(4′-dimethylaminomethyl-biphenyl-4-yl)-isoxazol-5-ylmethyl]-amide]
≤ 100 | CN(C)Cc1ccccc1-c1ccc(C2=NOC(CNC(=O)c3ccc(Cl)s3)C2)cc1 (centres unmarked) [Example 194, 5-Chloro-thiophene-2-carboxylic acid [3-(2′-dimethylaminomethyl-biphenyl-4-yl)-4,5-dihydro-isoxazol-5-ylmethyl]-amide]
≥ 500 | O=C(NCc1cc(-c2cccc(-c3cccc(CN4CCCC4)c3)c2)no1)c1ccc(Cl)s1 [Example 271, 5-Chloro-thiophene-2-carboxylic acid [3-(3′-pyrrolidin-1-ylmethyl-biphenyl-3-yl)-isoxazol-5-ylmethyl]-amide]
100 to 500 | CN1CCN=C1c1ccc(C2=NOC(CNC(=O)c3ccc(Cl)s3)C2)c(N(C)C)c1 (centres unmarked) [Example 75, 5-Chloro-thiophene-2-carboxylic acid {3-[2-dimethylamino-4-(1-methyl-4,5-dihydro-1H-imidazol-2-yl)-phenyl]-4,5-dihydro-isoxazol-5-ylmethyl}-amide]
≤ 100 | N=C(c1ccc(-n2cc(CNC(=O)c3ccc(Cl)s3)nn2)cc1)N1CCCC1 [Example 318, 5-Chloro-N-((1-(4-(imino(pyrrolidin-1-yl)methyl)phenyl)-1H-1,2,3-triazol-4-yl)methyl)thiophene-2-carboxamide]
100 to 500 | CN1CCN=C1c1ccc(-c2nc(CNC(=O)c3ccc(Cl)s3)cs2)cc1 [Example 351, 5-Chloro-N-((2-(4-(1-methyl-4,5-dihydro-1H-imidazol-2-yl)phenyl)thiazol-4-yl)methyl)thiophene-2-carboxamide]
≤ 100 | O=C(NCC1CC(c2ccc(C(=O)N3CCCC3)cc2)=NO1)c1ccc(Cl)s1 (centres unmarked) [Example 164, 5-Chloro-thiophene-2-carboxylic acid {3-[4-(pyrrolidine-1-carbonyl)-phenyl]-4,5-dihydro-isoxazol-5-ylmethyl}-amide]
≤ 100 | O=C(NCC1CC(c2ccc(Nc3ccncc3C(F)(F)F)cc2)=NO1)c1ccc(Cl)s1 (centres unmarked) [Example 403, 5-Chloro-N-((3-(4-(3-(trifluoromethyl)pyridin-4-ylamino)phenyl)-4,5-dihydroisoxazol-5-yl)methyl)thiophene-2-carboxamide]
